In this test the target is T1, GSK3β (Homo sapiens, UniProt P49841).
T1 construct: gene GSK3B
As to the kind of experiment: ADP-Glo kinase assay with GSK3β, GSK3β substrate and […] ATP. The format is biochemical. (In general: ADP-Glo first removes unused ATP, then detects ADP through luciferase.)

T1 sequence (P49841 whole entry): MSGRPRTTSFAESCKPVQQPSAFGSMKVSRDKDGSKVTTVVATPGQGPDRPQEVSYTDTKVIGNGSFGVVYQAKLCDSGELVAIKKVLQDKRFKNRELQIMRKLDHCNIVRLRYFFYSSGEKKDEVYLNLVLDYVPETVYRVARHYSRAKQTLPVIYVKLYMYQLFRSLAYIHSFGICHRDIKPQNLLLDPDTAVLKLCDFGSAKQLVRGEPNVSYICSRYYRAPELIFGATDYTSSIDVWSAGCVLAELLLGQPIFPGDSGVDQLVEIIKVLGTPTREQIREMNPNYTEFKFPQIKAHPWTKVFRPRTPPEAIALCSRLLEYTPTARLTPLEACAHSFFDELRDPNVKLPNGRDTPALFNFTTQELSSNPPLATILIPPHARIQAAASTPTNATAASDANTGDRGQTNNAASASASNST

What is called IC50 is the midpoint of a concentration-inhibition curve. The low end stands for higher potency, the high end for lower potency. With `COc1cc(O)c2c(c1)oc(=O)c1c3cc(O)c(O)cc3oc21` [wedelolactone], the IC50 was 21.7 µM.

These data come from article PMC4997609, “Wedelolactone enhances osteoblastogenesis by regulating Wnt/β-catenin signaling pathway but suppresses osteoclastogenesis by NF-κB/c-fos/NFATc1 pathway” (Scientific Reports, 2016).
